Measurements published in US20250195513A1, “DEGRADATION OF IRAK4 BY CONJUGATION OF IRAK4 INHIBITORS WITH E3 LIGASE LIGAND AND METHODS OF USE” (BeiGene, Ltd., priority 2022, published 2025).

What was measured:
Type in all cases: cell-based
[1] = biological target: T1, IRAK4 (Homo sapiens, UniProt Q9NWZ3); experiment: IRAK4 Degradation Assay (Karpas299, HTRF/TR-FRET); conditions: Karpas-299 cells; for Dmax: maximum percentage of degradation
T1 construct: endogenous in cells; host or cells: Karpas299
T1 sequence (Q9NWZ3 1-460): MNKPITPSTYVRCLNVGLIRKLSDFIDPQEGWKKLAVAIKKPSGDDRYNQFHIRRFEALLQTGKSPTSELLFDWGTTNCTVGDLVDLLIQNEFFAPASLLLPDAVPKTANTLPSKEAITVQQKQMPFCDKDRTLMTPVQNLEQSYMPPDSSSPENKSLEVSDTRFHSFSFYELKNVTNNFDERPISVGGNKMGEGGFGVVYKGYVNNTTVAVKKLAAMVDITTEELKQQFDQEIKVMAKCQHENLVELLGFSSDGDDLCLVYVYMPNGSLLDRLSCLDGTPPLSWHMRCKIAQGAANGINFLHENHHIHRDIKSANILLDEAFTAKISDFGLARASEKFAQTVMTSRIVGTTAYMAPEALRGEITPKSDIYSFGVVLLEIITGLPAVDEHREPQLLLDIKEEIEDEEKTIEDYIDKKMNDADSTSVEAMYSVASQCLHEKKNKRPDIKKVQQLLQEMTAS
In short: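 Karpas299 cells at 0.2 million per well were exposed to serially diluted compounds for 24 h or 5 h, then lysed. IRAK4 remaining in lysates was quantified by HTRF (665/620 nm) after overnight antibody incubation at room temperature. Percent degradation was fitted to a four-parameter curve to give IC50 (DC50).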

[2] = tested on: TNF-α production in THP-1 cells; experiment: TNF-α Production Assay in THP-1 Cells (LPS stimulated); conditions: for IC50 / Emax: THP-1, 24 h; for Emax: read-out: TNF-α (THP-1) 24 h IMax
In short: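 Cells (0.2 million/well) pretreated with compounds for 24 h, then stimulated with LPS at 1 μg/mL final for 24 h. TNF-α in culture supernatant quantified by TR-FRET immunoassay.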

[3] = tested on: IL-6 production in human PBMC; experiment: IL-6 Production Assay in Human PBMC (LPS stimulated); conditions: for IC50 / Emax: Homo sapiens, 5 h; for Emax: read-out: IL-6 (PBMC) 5 h IMax
Method: Frozen human PBMC (AllCells) were thawed in RPMI 1640 medium (Thermo Scientific) supplemented with 10% heat-inactivated FBS (Thermo Scientific) and recovered at 37° C. overnight. The next day, PBMC were seeded into 96-well plates at the density of 0.2 million cells per well and treated with compounds for 24 h. Then lipopolysaccharide was added at the final concentration of 10 ng/mL for 5 h. Culture supernatant was collected for subsequent measurement of IL-6 concentration by a TR-FRET-based method (Degorce, François, et al. Current chemical genomics. 2009, 3: 22) as described by the manufacturer manual (Cisbio). FRET signals were measured with PHERAstar FSX reader (BMG Labtech).

[4] = biological target: T1, IRAK4; experiment: IRAK4 Degradation Assay with Human Serum (Karpas299, HTRF/TR-FRET); conditions: Karpas-299 in human serum, 24 hrs treatment; for DC50: read-out: IRAK4 degradtion with human serum assay DC50; for Dmax: read-out: IRAK4 degradtion with human serum assay Dmax (%)
In short: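 Karpas299 cells in human AB serum (0.2 million/well) treated with serial compound dilutions for 24 h. After lysis, IRAK4 quantified by HTRF (overnight antibody incubation at room temperature, 665/620 nm read). Degradation percentage fitted to four-parameter curve to give DC50.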

[5] = 5 h treatment, read-out: IRAK4 in Karpas-299 (5 h) Dmax (%)
[6] = 5 h treatment, read-out: IRAK4 in Karpas-299 (5 h) DC50
[7] = 24 h treatment, read-out: IRAK4 in Karpas-299 (24 h) Dmax (%)
[8] = 24 h treatment, read-out: IRAK4 in Karpas-299 (24 h) DC50
[9] = Homo sapiens, maximum inhibition

| Compound | Dmax [1, 5] [%] | DC50 [1, 6] [nM] | Dmax [1, 7] [%] | DC50 [1, 8] [nM] | IC50 ([2]; Homo sapiens) [nM] | DC50 [4] [nM] | Dmax [4] [%] | IC50 [2] [nM] | Emax [2, 9] [%] | IC50 [3] [nM] | Emax ([3]; maximum inhibition) [%] | TNF-α (THP-1) 24 h IMax ([2]; maximum inhibition) [%] | IL-6 (PBMC) 5 h IMax ([3]; maximum inhibition) [%] |
| --- | --- | --- | --- | --- | --- | --- | --- | --- | --- | --- | --- | --- | --- |
| CC(C)(O)c1cc2nc(C3CCN(C4CCN(C(=O)C5CN(c6cc(F)c([C@H]7CCC(=O)NC7=O)c(F)c6)C5)CC4)CC3)cn2cc1NC(=O)c1cccc(C(F)(F)F)n1 [Example 126, (R)—N-(2-(1′-(1-(4-(2,6-dioxopiperidin-3-yl)-3,5-difluorophenyl)azetidine-3-carbonyl)-[1,4′-bipiperidin]-4-yl)-7-(2-hydroxypropan-2-yl)imidazo[1,2-a]pyridin-6-yl)-6-(trifluoromethyl)picolinamide] | 92 | 8.4 | 99 | 1.1 | 43 | – | – | – | 88 | 23 | 90 | – | – |
| CC[C@@H]1[C@H](F)C(=O)N[C@@H]1COc1nccc2cc(C(N)=O)c(OC)cc12 [PF-06650833] | – | – | – | – | – | – | – | 19 | – | – | – | 67 | <50 |
| NC(=O)c1nn([C@H]2CC[C@H](N3CCN(C(=O)[C@@H]4CCN(c5cc(F)c([C@H]6CCC(=O)NC6=O)c(F)c5)C4)CC3)CC2)cc1NC(=O)c1coc(-c2ccnc(NCC(F)(F)F)c2)n1 [Example 12, N-(3-carbamoyl-1-((1R,4r)-4-(4-((R)-1-(4-((R)-2,6-dioxopiperidin-3-yl)-3,5-difluorophenyl)pyrrolidine-3-carbonyl)piperazin-1-yl)cyclohexyl)-1H-pyrazol-4-yl)-2-(2-((2,2,2-trifluoroethyl)amino)pyridin-4-yl)oxazole-4-carboxamide] | 97 | 5.4 | 98 | 1.8 | 25 | – | – | – | 90 | 4.6 | 91 | – | – |
| COC[C@@H]1CN(CCc2cc(F)c([C@H]3CCC(=O)NC3=O)c(F)c2)CCN1[C@H]1CC[C@H](n2cc3cc(NC(=O)c4ccc5cc(C#N)cnn45)c(C(C)(C)O)cc3n2)CC1 [Example 325, 3-cyano-N-(2-((1S,4r)-4-((S)-4-(4-((R)-2,6-dioxopiperidin-3-yl)-3,5-difluorophenethyl)-2-(methoxymethyl)piperazin-1-yl)cyclohexyl)-6-(2-hydroxypropan-2-yl)-2H-indazol-5-yl)pyrrolo[1,2-b]pyridazine-7-carboxamide] | – | – | 96 | 0.9 | – | 15 | 91 | – | – | 4.2 | 72 | – | – |
| CC(C)(O)c1cc2nn([C@H]3CC[C@H](N4C[C@@H]5CN(CCc6cc(F)c([C@H]7CCC(=O)NC7=O)c(F)c6)C[C@H]5C4)CC3)cc2cc1NC(=O)c1ccc2cc(C#N)cnn12 [Example 362, 3-cyano-N-(2-((1S,4r)-4-((3aS,6aS)-5-(4-((R)-2,6-dioxopiperidin-3-yl)-3,5-difluorophenethyl)hexahydropyrrolo[3,4-c]pyrrol-2(1H)-yl)cyclohexyl)-6-(2-hydroxypropan-2-yl)-2H-indazol-5-yl)pyrrolo[1,2-b]pyridazine-7-carboxamide] | – | – | 98 | 2.5 | – | 5.1 | 97 | – | – | 6 | 71 | – | – |
| COC[C@@H]1CN([C@H]2CC[C@H](n3cc4cc(NC(=O)c5ccc6cc(C#N)cnn56)c(C(C)(C)O)cc4n3)CC2)CCN1C1CN(c2cc(F)c([C@H]3CCC(=O)NC3=O)c(F)c2)C1 [Example 387, 3-cyano-N-(2-((1S,4r)-4-((S)-4-(1-(4-((R)-2,6-dioxopiperidin-3-yl)-3,5-difluorophenyl)azetidin-3-yl)-3-(methoxymethyl)piperazin-1-yl)cyclohexyl)-6-(2-hydroxypropan-2-yl)-2H-indazol-5-yl)pyrrolo[1,2-b]pyridazine-7-carboxamide] | 90 | 1.3 | 98 | 0.8 | – | 6.9 | 95 | – | – | 1.7 | 53 | – | – |
| CC(C)(O)c1cc2nn([C@H]3CC[C@H](N4CCN([C@H]5C[C@H](c6ccc(N[C@H]7CCC(=O)NC7=O)cc6)C5)CC4)CC3)cc2cc1NC(=O)c1ccc2cc(C#N)cnn12 [Example 274, 3-cyano-N-(2-((1R,4r)-4-(4-((1S,3R)-3-(4-(((S)-2,6-dioxopiperidin-3-yl)amino)phenyl)cyclobutyl)piperazin-1-yl)cyclohexyl)-6-(2-hydroxypropan-2-yl)-2H-indazol-5-yl)pyrrolo[1,2-b]pyridazine-7-carboxamide] | 97 | 9.8 | 97 | 1.6 | – | 3.7 | 99 | – | – | 2 | 64 | – | – |

Now from value to compound, other results behind:

| Dmax [1, 5] [%] | DC50 [1, 6] [nM] | Dmax [1, 7] [%] | DC50 [1, 8] [nM] | IC50 ([2]; Homo sapiens) [nM] | DC50 [4] [nM] | Dmax [4] [%] | IC50 [2] [nM] | Compound | Emax [2, 9] [%] | IC50 [3] [nM] | Emax ([3]; maximum inhibition) [%] | TNF-α (THP-1) 24 h IMax ([2]; maximum inhibition) [%] | IL-6 (PBMC) 5 h IMax ([3]; maximum inhibition) [%] |
| --- | --- | --- | --- | --- | --- | --- | --- | --- | --- | --- | --- | --- | --- |
| 95 | 1.2 | 96 | 0.8 | – | 5.9 | 97 | – | CC(C)(O)c1cc2nn([C@H]3CC[C@H](N4CCN([C@H]5C[C@@H](c6cc(F)c([C@H]7CCC(=O)NC7=O)c(F)c6)C5)CC4)CC3)cc2cc1NC(=O)c1ccc2cc(C#N)cnn12 [Example 363, 3-cyano-N-(2-((1S,4r)-4-(4-((1S,3S)-3-(4-((R)-2,6-dioxopiperidin-3-yl)-3,5-difluorophenyl)cyclobutyl)piperazin-1-yl)cyclohexyl)-6-(2-hydroxypropan-2-yl)-2H-indazol-5-yl)pyrrolo[1,2-b]pyridazine-7-carboxamide] | – | 2.2 | 67 | – | – |
| – | – | 97 | 0.6 | – | 1.8 | 98 | – | CC(C)(O)c1cc2nn(C3CCC(N4C[C@@H]5CN(C6CN(c7cc(F)c([C@H]8CCC(=O)NC8=O)c(F)c7)C6)C[C@H]5C4)CC3)cc2cc1NC(=O)c1ccc2cc(C#N)cnn12 (stereo partly drawn) [Example 360, 3-cyano-N-(2-((1R,4r)-4-((3aR,6aR)-5-(1-(4-((R)-2,6-dioxopiperidin-3-yl)-3,5-difluorophenyl)azetidin-3-yl)hexahydropyrrolo[3,4-c]pyrrol-2(1H)-yl)cyclohexyl)-6-(2-hydroxypropan-2-yl)-2H-indazol-5-yl)pyrrolo[1,2-b]pyridazine-7-carboxamide] | – | 0.6 | 67 | – | – |
| – | – | 98 | 0.2 | – | 0.7 | 96 | – | COc1cc2nn([C@H]3CC[C@H](N4CCN(CC5CN(c6cc(F)c([C@H]7CCC(=O)NC7=O)c(F)c6)C5)CC4)CC3)cc2cc1C(=O)Nc1cnc2cccnn12 [Example 345, 2-((1r,4r)-4-(4-((1-(4-((R)-2,6-dioxopiperidin-3-yl)-3,5-difluorophenyl)azetidin-3-yl)methyl)piperazin-1-yl)cyclohexyl)-N-(imidazo[1,2-b]pyridazin-3-yl)-6-methoxy-2H-indazole-5-carboxamide] | – | 3.5 | 60 | – | – |
| – | – | 96 | 0.7 | 12 | 14 | 100 | – | COC[C@H]1CN([C@H]2CC[C@H](n3cc4cc(NC(=O)c5ccc6cc(C#N)cnn56)c(C(C)(C)O)cc4n3)CC2)CCN1C(=O)C1CN(c2cc(F)c([C@H]3CCC(=O)NC3=O)c(F)c2)C1 [Example 185, 3-cyano-N-(2-((1R,4r)-4-((R)-4-(1-(4-((R)-2,6-dioxopiperidin-3-yl)-3,5-difluorophenyl)azetidine-3-carbonyl)-3-(methoxymethyl)piperazin-1-yl)cyclohexyl)-6-(2-hydroxypropan-2-yl)-2H-indazol-5-yl)pyrrolo[1,2-b]pyridazine-7-carboxamide] | 91 | – | – | – | – |
